From ChEMBL document CHEMBL1158670, “Mediation of the cytotoxicity of lanostanoids and steroids of Ganoderma tsugae through apoptosis and cell cycle” (J Nat Prod, 1998)
In brackets after ≈: the same amount, converted by molar mass. Activity calls are given as the source filed them. The rule behind the calls is not given here.

Legend:
[1] = Cell cycle arrest in human Hep3B cells by accumulation at G2/M phase at 35 ug/mL after 24 hrs by flow cytometry; type: functional, cell-based; conditions: Hep 3B2
[2] = Cell cycle arrest in human Hep3B cells by accumulation at G0/G1 phase at 35 ug/mL after 24 hrs by flow cytometry; type: functional, cell-based; conditions: Hep 3B2
[3] = Cell cycle arrest in human Hep3B cells by accumulation at S phase at 50 ug/mL after 24 hrs by flow cytometry; type: functional, cell-based; conditions: Hep 3B2
[4] = Cell cycle arrest in human Hep3B cells by accumulation at G0/G1 phase at 100 ug/mL after 24 hrs by flow cytometry; type: functional, cell-based; conditions: Hep 3B2
[5] = Cell cycle arrest in human Hep3B cells by accumulation at S phase at 35 ug/mL after 24 hrs by flow cytometry; type: functional, cell-based; conditions: Hep 3B2
[6] = Cell cycle arrest in human Hep3B cells by accumulation at S phase at 20 ug/mL after 24 hrs by flow cytometry; type: functional, cell-based; conditions: Hep 3B2
[7] = Cell cycle arrest in human Hep3B cells by accumulation at G2/M phase after 24 hrs by flow cytometry; type: functional, cell-based, Hep 3B2
[8] = Cell cycle arrest in human Hep3B cells by accumulation at G2/M phase at 50 ug/mL after 24 hrs by flow cytometry; type: functional, cell-based; conditions: Hep 3B2
[9] = Cell cycle arrest in human Hep3B cells by accumulation at G2/M phase at 100 ug/mL after 24 hrs by flow cytometry; type: functional, cell-based; conditions: Hep 3B2
[10] = Cell cycle arrest in human Hep3B cells by accumulation at G0/G1 phase at 20 ug/mL after 24 hrs by flow cytometry; type: functional, cell-based; conditions: Hep 3B2
[11] = Cell cycle arrest in human Hep3B cells by accumulation at G2/M phase at 20 ug/mL after 24 hrs by flow cytometry; type: functional, cell-based; conditions: Hep 3B2
[12] = Cell cycle arrest in human Hep3B cells by accumulation at S phase at 100 ug/mL after 24 hrs by flow cytometry; type: functional, cell-based; conditions: Hep 3B2
[13] = Cell cycle arrest in human Hep3B cells by accumulation at G0/G1 phase at 50 ug/mL after 24 hrs by flow cytometry; type: functional, cell-based; conditions: Hep 3B2
[14] = Cell cycle arrest in human Hep3B cells by accumulation at subG1 phase at 24 ug/mL after 24 hrs by flow cytometry; type: functional, cell-based; conditions: Hep 3B2

SMILES | Activity [1] | Activity [2] | Activity [3] | Activity [4] | Activity [5] | Activity [6] | IC50 [7] | Activity [8] | Activity [9] | Activity [10] | Activity [11] | Activity [12] | Activity [13] | Activity [14]
CC(C)[C@@H](C)/C=C/[C@@H](C)[C@H]1CC[C@H]2C3=CC[C@H]4C[C@H](O)[C@@H](O)C[C@]4(C)[C@@]3(O)CC[C@]12C | 9.8% | 55.3% | 35.5% | 57.8% | 35% | 36.8% | 87.1 mg/L (≈ 202 µM) | 9.2% | 5.2% | 50.6% | 12.6% | 37% | 55.3% | –
CC(=O)O[C@@H]1CC[C@]2(C)C3=C(CC[C@H]2C1(C)C)[C@]1(C)CC[C@H]([C@@H](CCC=C(C)C)C(=O)O[C@@H]2O[C@H](CO)[C@@H](O)[C@H](O)[C@H]2O)[C@@]1(C)CC3 | – | – | – | – | – | – | – | – | – | – | – | – | – | Active
